Legend:
spontaneous locomotion = experiment: Mouse Activity and Screen Test Procedure (MAST): locomotor activity in actophotometer; assay type: in vivo, Swiss-Webster male mice; conditions: one hour prior to testing
Description: (§1) Nine unfasted Swiss-Webster male mice weighing 20-30 g are equally divided into three groups for each drug dose to be tested. There is, data for each dose level was generated by three separate groups of three mice each.
(§2) A minimum of three dose levels (10, 30, and 100 mg/kg) are tested for each drug. Treatments are administered intraperitoneally one hour prior to testing. All dosages are calculated as parent compound and given in volumes of 10 ml/kg. Compounds are dissolved or suspended in 0.2% Methocel. Control animals are injected with Methocel.
The actophotometer consists of a cylindrical chamber whose center is occupied by another cylinder which contains the illumination for six photocells located on the perimeter of the chamber. Six light-beam interruptions equal one count. Locomotor activity is recorded by computer at ten minute intervals for 60 minutes.
Data: The data obtained from the screen test are expressed as percent of mice falling off the screen. Data derived from locomotor activity of drug treated mice are compared to the activity of vehicle treated animals and are expressed as percent inhibition of spontaneous locomotion. All percentages reported for inhibition of locomotion (LI) are based upon data accumulated for one hour. […] An overall dose rating is obtained by the following criteria:
LAD refers to the lowest dose at which an A rating is achieved. […] The compounds are identified in the Examples.

adenosine A2 receptor = molecular target: T1, adenosine A2 receptor (Rattus norvegicus, UniProt P30543); experiment: Adenosine Receptor Binding - A2 Receptor Affinity (RBA2), [3H]NECA displacement in striatal membranes; conditions: 4 nM [3H]NECA, 50 nM N6-cyclopentyladenosine, 60 minutes at 25°C, read-out: RBA-2 (IC50, A2 receptor affinity)
T1 construct: Brains were thawed and then kept on ice while the striata were dissected out; tissue Pel-Freez (Rogers, Arkansas); host or cells: rat striatum (membranes)
T1 sequence (P30543 whole entry): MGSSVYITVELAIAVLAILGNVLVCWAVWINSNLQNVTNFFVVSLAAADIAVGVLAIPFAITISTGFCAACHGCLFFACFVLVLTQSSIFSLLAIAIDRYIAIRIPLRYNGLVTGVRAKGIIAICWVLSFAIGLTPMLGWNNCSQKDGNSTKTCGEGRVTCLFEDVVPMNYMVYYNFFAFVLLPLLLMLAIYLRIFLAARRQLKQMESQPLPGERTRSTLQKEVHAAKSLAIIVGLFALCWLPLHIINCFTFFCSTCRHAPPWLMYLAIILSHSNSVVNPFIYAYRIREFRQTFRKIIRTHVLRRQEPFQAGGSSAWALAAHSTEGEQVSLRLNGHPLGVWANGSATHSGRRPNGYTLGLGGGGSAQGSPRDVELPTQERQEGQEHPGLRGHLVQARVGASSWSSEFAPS
Description: Brains from 200-500 g mixed sex Sprague-Dawley rats were purchased from Pel-Freez (Rogers, Arkansas). Fresh brains from male Long-Evans hooded rats (Blue Spruce Farms, Altamont, NY) gave essentially identical results. Brains were thawed and then kept on ice while the striata were dissected out. Striata were disrupted in 10 vol of ice-cold 50 mM Tris·HCl (pH 7.7 at 25°C, pH 8.26 at 5°C) (Tris) for 30 seconds in a Polytron PT―10 (Brinkmann) at setting 5. The suspension was centrifuged at 50,000 xg for ten minutes, the supernatant discarded, the pellet resuspended in 10 vol ice-cold Tris as above, recentrifuged, resuspended at 1 g/5 ml, and stored in plastic vials at -70°C (stable for at least six months). When needed, tissue was thawed at room temperature, disrupted in a Polytron, and kept on ice until used.
All incubations were for 60 minutes at 25°C in 12 x 75 mm glass tubes containing 1 ml Tris with 5 mg original tissue weight of rat weight of rat striatal membranes, 4 nM [^3H]-N-ethyl adenosine-5'-carboxamide ([^3H]NECA), 50 nM N^s-cyclopentyladenosine (to eliminate A1 receptor binding), 10 mM MgCI2, 0.1 units/ml of adenosine deaminase and 1% dimethylsulfoxide. N^6-Cyclopentyladenosine was dissolved at 10 mM in 0.02 N HCI and diluted in Tris. Stock solutions and dilutions of N^6-cyclopentyladenosine could be stored at -20°C for several months. Test compounds were dissolved at 10 mM in dimethylsulfoxide on the same day as the experiment, and diluted in dimethylsulfoxide to 100x the final incubation concentration. Control incubations received an equal volume (10 µl) of dimethylsulfoxide; the resulting concentration of dimethylsulfoxide had no effect on binding. [^3H]NECA was diluted to 40 nM in Tris. The membrane suspension (5 mg/0.79 ml) contained sufficient MgC12 and adenosine deaminase to give 10 mM and 0.1 units/ml, respectively, final concentration in the incubation. […] After all additions, the rack of tubes was vortexed, and the tubes were then incubated for 60 min at 25°C in a shaking water bath. The rack of tubes was vortexed an additional time halfway through the incubation.
Incubations were terminated by filtration through 2.4 cm GF/B filters under reduced pressure. Each tube was filtered as follows: the contents of the tube were poured onto the filter, 4 ml of ice-cold Tris were added to the tube and the contents poured onto the filter, and the filter was washed twice with 4 ml of ice-cold Tris. The filtration was complete in about 12 seconds. Filters were put in scintillation vials, 8 ml of Formula 947 scintillation fluid added, and the vials left overnight, shaken, and counted in a liquid scintillation counter at 40% efficiency.
Nonspecific binding was defined as binding in the presence of […] N^6-cyclopentyladenosine, and specific binding was defined as total binding minus nonspecific binding. The IC50 was calculated by weighted nonlinear least squares curve-fitting to the mass action equation. [formula] • where Y is cpm bound • T is cpm total binding without drug • S is cpm specific binding without drug • D is the concentration of drug • and K is the IC50 of the drug Weighting factors were calculated under the assumption that the standard deviation was proportional to the predicted value of Y. Nonspecific binding was treated as a very large (infinite) concentration of drug in the computer analysis.

[1] = system: mice falling off the inverted screen; experiment: Mouse Activity and Screen Test Procedure (MAST): screen test (ST); assay type: in vivo, Swiss-Webster male mice; conditions: one hour postinjection, percent of mice falling off the screen
Text: The compounds of the invention are new chemical substances which are useful as pharmaceutical agents for the treatment of psychoses. The antipsychotic activity of representative compounds of the invention was established by the Mouse Activity and Screen Test Procedure (MAST) described below.
as §1, §2
Testing: A two part testing procedure is started one hour postinjection. First, the screen test (ST) is performed (see Pharmac. Biochem. Behav. 6,351-353,1977). Briefly this test consists of placing mice on individual wire screens which are then rotated 180 degrees at the start of a 60 second observation period. The number of mice falling off the inverted screen is recorded.
Data: The data obtained from the screen test are expressed as percent of mice falling off the screen. Data derived from locomotor activity of drug treated mice are compared to the activity of vehicle treated animals and are expressed as percent inhibition of spontaneous locomotion. All percentages reported for inhibition of locomotion (LI) are based upon data accumulated for one hour. Both phases of testing are graded: A=60-100%; C=31-59%; and N=0-30%. An overall dose rating is obtained by the following criteria:
LAD refers to the lowest dose at which an A rating is achieved. […] Utilizing this procedure, an overall dose rating of A was obtained for the noted compound at the indicated dose. The compounds are identified in the Examples.

Row | SMILES | IC50 (adenosine A2 receptor) | Screen Test Failure ([1]; 1 mg/kg intraperitoneally) | Screen Test Failure ([1]; 3 mg/kg intraperitoneally) | Screen Test Failure ([1]; 10 mg/kg intraperitoneally) | Screen Test Failure ([1]; 30 mg/kg intraperitoneally) | Screen Test Failure ([1]; 100 mg/kg intraperitoneally) | Screen Test Failure ([1]; 0.3 mg/kg intraperitoneally) | Screen Test Failure ([1]; 9.0 mg/kg intraperitoneally) | Inhibition of Mouse Locomotion Activity (spontaneous locomotion; 1 mg/kg intraperitoneally) | Inhibition of Mouse Locomotion Activity (spontaneous locomotion; 3 mg/kg intraperitoneally) | Inhibition of Mouse Locomotion Activity (spontaneous locomotion; 10 mg/kg intraperitoneally) | Inhibition of Mouse Locomotion Activity (spontaneous locomotion; 30 mg/kg intraperitoneally) | Inhibition of Mouse Locomotion Activity (spontaneous locomotion; 100 mg/kg intraperitoneally) | Inhibition of Mouse Locomotion Activity (spontaneous locomotion; 0.3 mg/kg intraperitoneally) | Inhibition of Mouse Locomotion Activity (spontaneous locomotion; 9.0 mg/kg intraperitoneally)
1 | OC[C@H]1O[C@@H](n2cnc3c(NC4CSc5ccccc5C4)ncnc32)[C@H](O)[C@@H]1O (some centres unmarked) [Example 2] | 340 nM | 11% | 0% | 11% | 56% | 100% |  |  | 34% | 60% | 96% | 98% | 99% |  | 
2 | COc1ccc2c(c1)OCC(Nc1ncnc3c1ncn3[C@@H]1O[C@H](CO)[C@@H](O)[C@H]1O)C2 (some centres unmarked) [Example 3] | 1360 nM | 0% | 0% | 22% | 22% |  |  |  | 25% | 58% | 89% | 97% |  |  | 
3 | COc1ccc2c(c1)CC(Nc1ncnc3c1ncn3[C@@H]1O[C@H](CO)[C@@H](O)[C@H]1O)CO2 (some centres unmarked) [Example 6] | 1090 nM | 0% | 0% | 77% | 99% | 99% |  |  | 45% | 77% | 98% | 98% | 100% |  | 
4 | CC1Oc2ccccc2CC1Nc1ncnc2c1ncn2C1OC(CO)C(O)C1O (stereo not drawn) [Example 7, N^6-[cis-2-Methyl-3-chromanylamino]adenosine] | 1840 nM | 0% | 22% |  | 100% |  | 0% | 55% | 57% | 95% |  | 93% |  | 6% | 96%
5 | Cc1cc2c(cc1C)OCC(Nc1ncnc3c1ncn3[C@@H]1O[C@H](CO)[C@@H](O)[C@H]1O)C2 (some centres unmarked) [Example 9, N^6-[6,7-Dimethyl-3-chromanylamino]adenosine] | 1240 nM | 0% | 0% | 22% | 44% | 77% |  |  | 11% | 34% | 77% | 96% | 97% |  | 

The remaining compounds from weak to strong by IC50 (adenosine A2 receptor), led by results:

Row | IC50 (adenosine A2 receptor) | Screen Test Failure ([1]; 1 mg/kg intraperitoneally) | Screen Test Failure ([1]; 3 mg/kg intraperitoneally) | Screen Test Failure ([1]; 10 mg/kg intraperitoneally) | Screen Test Failure ([1]; 30 mg/kg intraperitoneally) | Screen Test Failure ([1]; 100 mg/kg intraperitoneally) | Screen Test Failure ([1]; 0.3 mg/kg intraperitoneally) | Screen Test Failure ([1]; 9.0 mg/kg intraperitoneally) | SMILES | Inhibition of Mouse Locomotion Activity (spontaneous locomotion; 1 mg/kg intraperitoneally) | Inhibition of Mouse Locomotion Activity (spontaneous locomotion; 3 mg/kg intraperitoneally) | Inhibition of Mouse Locomotion Activity (spontaneous locomotion; 10 mg/kg intraperitoneally) | Inhibition of Mouse Locomotion Activity (spontaneous locomotion; 30 mg/kg intraperitoneally) | Inhibition of Mouse Locomotion Activity (spontaneous locomotion; 100 mg/kg intraperitoneally) | Inhibition of Mouse Locomotion Activity (spontaneous locomotion; 0.3 mg/kg intraperitoneally) | Inhibition of Mouse Locomotion Activity (spontaneous locomotion; 9.0 mg/kg intraperitoneally)
6 | 942 nM | 0% | 0% | 11% | 22% | 55% |  |  | Cc1ccc2c(c1C)OCC(Nc1ncnc3c1ncn3[C@@H]1O[C@H](CO)[C@@H](O)[C@H]1O)C2 (some centres unmarked) [Example 10, N^6-[7,8-Dimethyl-3-chromanylamino]adenosine] | -8% | 33% | 85% | 91% | 96% |  | 
7 | 610 nM | 22% | 11% | 11% | 100% | 88% |  |  | OC[C@H]1O[C@@H](n2cnc3c(NC4COc5ccccc5C4)ncnc32)[C@H](O)[C@@H]1O (some centres unmarked) [Example 4, N^6-[3-Chromanylamino]adenosine] | 36% | 87% | 94% | 99% | 98% |  | 
8 | 600 nM |  | 33% | 33% | 22% |  |  |  | OC[C@H]1O[C@@H](n2cnc3c(NC4CCOc5ccccc54)ncnc32)[C@H](O)[C@@H]1O (some centres unmarked) [Example 1] |  | 91% | 94% | 97% |  |  | 
9 | 490 nM | 0% | 11% | 0% | 11% | 33% |  |  | C[C@H]1Oc2ccccc2C[C@@H]1Nc1ncnc2c1ncn2[C@@H]1O[C@H](CO)[C@@H](O)[C@H]1O (relative stereo) [Example 8, N^l-[trans-2-Methyl,-3-chromanylamino]adenosine] | 52% | 84% | 95% | 98% | 99% |  | 
10 | 210 nM | 0% | 0% | 22% | 55% | 44% |  |  | OC[C@H]1O[C@@H](n2cnc3c(NC4COc5c(Cl)cccc5C4)ncnc32)[C@H](O)[C@@H]1O (some centres unmarked) [Example 5] | -14% | 30% | 89% | 97% | 99% |  | 

From patent EP0181109B1, “N6-benzopyrano- and benzothiopyrano-adenosines” (WARNER-LAMBERT COMPANY, priority 1984, dated 1986)
